Measured values from ChEMBL document CHEMBL6074621, “Recent advances of honokiol:pharmacological activities, manmade derivatives and structure-activity relationship” (Eur J Med Chem, 2024).
Blank lines part the entries; values can stand above or below the compound they belong to.

Key:
HT-29 = test: Antiproliferative activity against human HT-29 cells assessed as reduction in cell growth after 72 hrs by MTT assay; type: functional, cell-based; conditions: HT-29, 72 h
PC-3 = test: Antiproliferative activity against human PC-3 cells assessed as reduction in cell growth after 72 hrs by MTT assay; type: functional, cell-based; conditions: PC-3, 72 h
HCT-116 = test: Antiproliferative activity against human HCT-116 cells assessed as reduction in cell growth after 72 hrs by MTT assay; type: functional, cell-based; conditions: HCT-116, 72 h
Homo sapiens = species: Homo sapiens; test: Inhibition of human pancreatic lipase at 10 uM relative to control
L02 = test: Antiproliferative activity against human LO2 cells; type: functional, cell-based
SMMC-7721 = test: Antiproliferative activity against human SMMC-7721 cells; type: functional, cell-based

IC50 (HT-29): 11.1 µM
IC50 (PC-3): 19.8 µM
IC50 (HCT-116): 9.8 µM
Structure (SMILES): C=CCc1cc(CC=C)c(O)c(-c2cc(CC=C)c(O)c(CC=C)c2)c1

inhibition (Homo sapiens): 81%
Structure (SMILES): C/C(Cc1ccc(O)c(-c2ccc3oc(C)cc3c2)c1)=N\NC(=O)c1ccc(O)cc1

IC50 (SMMC-7721): 13.1 µM
Structure (SMILES): C=CCc1cc(CN2CCC(N)CC2)c(O)c(-c2cc(CC=C)c(O)c(CN3CCC(N)CC3)c2)c1
IC50 (L02): 18 µM
